IC50 and GI50 data for 20 compounds are collected here from patent US12479845B2, “Imidazopyridine derivative compounds and use of same” (HANMI PHARM. CO., LTD., priority 2019, dated 2025).

Molecules are shown by their SMILES.

One assay deals with LSD1 (Homo sapiens (Human), UniProt O60341). Description: Biochemical analysis of LSD1 histone demethylase inhibition (BPS Bioscience LSD1 fluorescence analysis kit, HRP/Amplex Red). To be noted: demethylation of Lys4 of histone H3. As to the method: The biochemical inhibition activity of the synthesized compounds on LSD1 was measured. The activity measurement was performed using LSD1 fluorescence analysis kit (available from BPS Bioscience Co., Ltd., Catalog No: 50106). This analysis kit is designed to measure activity of LSD1 enzyme. H2O2 generated upon demethylation of Lys4 moiety of histone H3 by LSD1 is reacted with HRP/Amplex Red reagent to form fluorescent Resorufin, which is measured by this kit, thereby confirming demethylation.
The results are expressed as an IC50 value. As for a control, GSK2879552 (available from GlaxoSmithKline USA) was used.

The subject of a further assay is NCI-H1417 cells. Description: Cell growth suppression test (CellTiter-Glo Luminescent Cell Viability Assay, 10 days treatment). The class given is cell-based. To be noted: Homo sapiens, 240 h, treated for 10 days. The method, then: Cell growth suppression effects of the synthesized compounds on NCI-H1417 cells were identified. The cells were treated with the synthesized compounds for 10 days. Then, in order to test the cell growth suppression, CellTiter-Glo Luminescent Cell Viability Assay (available from Promega, USA) was used. This test is to measure emission signals proportional to the number of ATPs based on a fixed amount of ATPs, which represents the presence of metabolically active cells, thereby determining the number of viable cells. The results are expressed as a Gl50 value. As for a control, GSK2879552 (available from GlaxoSmithKline USA) was used.
For orientation: Cellular ATP, detected with luciferase, serves as a proxy for viable cell number.

What is called IC50 is the midpoint of a concentration-inhibition curve. In general, GI50 refers to the concentration at which growth is held to half of that of the control. A high value points to lower sensitivity of the cells. `N#Cc1ccc(-c2nc3c(N4CCC[C@@H](N)C4)ccnc3n2-c2ccc(N3CCC(F)(F)C3)cc2F)cc1F` [Example 26, (R)-4-(7-(3-aminopiperidine-1-yl)-3-(4-(3,3-difluoropyrrolidine-1-yl)-2-fluorophenyl)-3H-imidazo[4,5-b]pyridine-2-yl)-2-fluorobenzonitrile] showed an IC50 at LSD1 of 29 nM. In the assay with NCI-H1417 cells, this compound displayed a GI50 of 26 nM. Turning to `CO[C@@H]1CCN(c2ccc(-n3c(-c4ccc(C#N)c(F)c4)nc4c(N5CCC[C@@H](N)C5)ccnc43)c(F)c2)C1` [Example 24, 4-(7-((R)-3-aminopiperidine-1-yl)-3-(2-fluoro-4-((R)-3-methoxypyrrolidine-1-yl)phenyl)-3H-imidazo[4,5-b]pyridine-2-yl)-2-fluorobenzonitrile], at LSD1, the IC50 stood at 19 nM. Also, the 50% growth inhibitory concentration (GI50) with NCI-H1417 cells was 7.6 nM. As to `CCO[C@H]1CCN(c2ccc(-n3c(-c4ccc(C#N)c(F)c4)nc4c(N5CCC[C@@H](N)C5)ccnc43)c(F)c2)C1` [Example 39], on LSD1, the IC50 was found to be 25 nM. In the assay with NCI-H1417 cells, this compound displayed a GI50 of 3.6 nM. The matching figures for `COC1CN(c2ccc(-n3c(-c4ccc(C#N)c(F)c4)nc4c(N5CCC[C@@H](N)C5)ccnc43)c(F)c2)C1` [Example 31, (R)-4-(7-(3-aminopiperidine-1-yl)-3-(2-fluoro-4-(3-methoxyazetidine-1-yl)phenyl)-3H-imidazo[4,5-b]pyridine-2-yl)-2-fluorobenzonitrile]: 30 nM and 32 nM. For the compound `CN[C@@H]1CCCN(c2ccnc3c2nc(-c2ccc(C#N)c(F)c2)n3-c2ccc(N3CCCC3)cc2)C1` [Example 12, (R)-2-fluoro-4-(7-(3-(methylamino)piperidine-1-yl)-3-(4-(pyrrolidine-1-yl)phenyl)-3H-imidazo[4,5-b]pyridine-2-yl)benzonitrile], it took 24 nM to reach half-maximal inhibition at LSD1 (IC50). For `Cc1ccc(-n2c(-c3ccc(C#N)cc3)nc3c(N4CCC[C@@H](N)C4)ccnc32)cc1` [Example 1, (R)-4-(7-(3-aminopiperidine-1-yl)-3-(p-tolyl)-3H-imidazo[4,5-b]pyridine-2-yl)benzonitrile], the IC50 against LSD1 amounted to 56 nM. This compound came in with a GI50 with NCI-H1417 cells of 90 nM. The matching figures for `N#Cc1ccc(-c2nc3c(N4CC[C@@H](N)C4)ccnc3n2-c2ccc(C3CC3)cc2)cc1` [Example 2, (R)-4-(7-(3-aminopyrrolidine-1-yl)-3-(4-cyclopropylphenyl)-3H-imidazo[4,5-b]pyridine-2-yl)benzonitrile]: 162 nM and 40 nM.

As to `N#Cc1ccc(-c2nc3c(N4CCC(N)CC4)ccnc3n2-c2ccc(C3CC3)cc2)cc1` [Example 3, 4-(7-(4-aminopiperidine-1-yl)-3-(4-cyclopropylphenyl)-3H-imidazo[4,5-b]pyridine-2-yl)benzonitrile], the IC50 against LSD1 is 53 nM. The compound further yielded a GI50 in the assay with NCI-H1417 cells of 230 nM. For `Cc1ccc(-n2c(-c3ccc(C#N)c(F)c3)nc3c(N4CCC[C@@H](N)C4)ccnc32)c(F)c1` [Example 7, (R)-4-(7-(3-aminopiperidine-1-yl)-3-(2-fluoro-4-methylphenyl)-3H-imidazo[4,5-b]pyridine-2-yl)-2-fluorobenzonitrile] the same measures were 26 nM and 99 nM. With `N#Cc1ccc(-c2nc3c(N4CCCC[C@@H](N)C4)ccnc3n2-c2ccc(N3CC4COCC4C3)cc2F)cc1F` (stereo partly drawn) [Example 73, 4-(7-((R)-3-aminoazepane-1-yl)-3-(2-fluoro-4-(tetrahydro-1H-furo[3,4-c]pyrrole-5(3H)-yl)phenyl)-3H-imidazo[4,5-b]pyridine-2-yl)-2-fluorobenzonitrile], the IC50 at LSD1 worked out at 28 nM. As to `N#Cc1ccc(-c2nc3c(N4CCCC[C@@H](N)C4)ccnc3n2-c2ccc(C3CC3)cc2)cc1F` [Example 8, (R)-4-(7-(3-aminoazepane-1-yl)-3-(4-cyclopropylphenyl)-3H-imidazo[4,5-b]pyridine-2-yl)-2-fluorobenzonitrile], 23 nM corresponded to half-maximal inhibition at LSD1 (IC50). Moreover, the GI50 in the assay with NCI-H1417 cells was found to be 56 nM. The matching figures for `N#Cc1ccc(-c2nc3c(N4CCC[C@@H](N)C4)ccnc3n2-c2ccc(N3CCCCC3)cc2)cc1F` [Example 9, (R)-4-(7-(3-aminopiperidine-1-yl)-3-(4-(piperidine-1-yl)phenyl)-3H-imidazo[4,5-b]pyridine-2-yl)-2-fluorobenzonitrile]: 38 nM and 100 nM. For `CO[C@H]1CCN(c2ccc(-n3c(-c4ccc(C#N)c(F)c4)nc4c(N5CCCC[C@@H](N)C5)ccnc43)c(F)c2)C1` [Example 67, 4-(7-((R)-3-aminoazepane-1-yl)-3-(2-fluoro-4-((S)-3-methoxypyrrolidine-1-yl)phenyl)-3H-imidazo[4,5-b]pyridine-2-yl)-2-fluorobenzonitrile] the same measures were 30 nM and 2.7 nM. For `COC1CCN(c2ccc(-n3c(-c4ccc(C#N)c(F)c4)nc4c(N5CCC[C@@H](N)C5)ccnc43)c(F)c2)C1` (stereo partly drawn) [Example 23, 4-(7-((R)-3-aminopiperidine-1-yl)-3-(2-fluoro-4-(3-methoxypyrrolidine-1-yl)phenyl)-3H-imidazo[4,5-b]pyridine-2-yl)-2-fluorobenzonitrile] the same measures were 17 nM and 4.8 nM. On to `N#Cc1ccc(-c2nc3c(N4CCC[C@@H](N)C4)ccnc3n2-c2ccc(N3CCCC3)cc2F)cc1F` [Example 27, (R)-4-(7-(3-aminopiperidine-1-yl)-3-(2-fluoro-4-(pyrrolidine-1-yl)phenyl)-3H-imidazo[4,5-b]pyridine-2-yl)-2-fluorobenzonitrile], for which, on LSD1, the IC50 turned out to be 37 nM. This compound displayed a GI50 with NCI-H1417 cells of 64 nM. In the case of `N#Cc1ccc(-c2nc3c(N4CCC[C@@H](N)C4)ccnc3n2-c2c(F)cc(C3CC3)cc2F)cc1F` [Example 18, (R)-4-(7-(3-aminopiperidine-1-yl)-3-(4-cyclopropyl-2,6-difluorophenyl)-3H-imidazo[4,5-b]pyridine-2-yl)-2-fluorobenzonitrile], the IC50 against LSD1 came to 38 nM. The compound further registered a GI50 in the assay with NCI-H1417 cells of 46 nM.

As for `N#Cc1ccc(-c2nc3c(N4CCC[C@@H](N)C4)ccnc3n2-c2c(F)cc(N3CCCC3)cc2F)cc1F` [Example 19, (R)-4-(7-(3-aminopiperidine-1-yl)-3-(2,6-difluoro-4-(pyrrolidine-1-yl)phenyl)-3H-imidazo[4,5-b]pyridine-2-yl)-2-fluorobenzonitrile], 29 nM corresponded to half-maximal inhibition against LSD1 (IC50). The GI50 in the assay with NCI-H1417 cells was 18 nM.

Turning to `N#Cc1ccc(-c2nc3c(N4CCC[C@@H](N)C4)ccnc3n2-c2ccc(N3CCCCC3)cc2F)cc1F` [Example 10, (R)-4-(7-(3-aminopiperidine-1-yl)-3-(2-fluoro-4-(piperidine-1-yl)phenyl)-3H-imidazo[4,5-b]pyridine-2-yl)-2-fluorobenzonitrile], on LSD1, the IC50 came out at 40 nM. In the assay with NCI-H1417 cells, this compound returned a GI50 of 30 nM. On to `CN(C)c1ccc(-n2c(-c3ccc(C#N)c(F)c3)nc3c(N4CCC[C@@H](N)C4)ccnc32)cc1` [Example 14, (R)-4-(7-(3-aminopiperidine-1-yl)-3-(4-(dimethylamino)phenyl)-3H-imidazo[4,5-b]pyridine-2-yl)-2-fluorobenzonitrile], for which the IC50 against LSD1 was 26 nM. For the compound `N#Cc1ccc(-c2nc3c(N4CCC[C@@H](N)C4)ccnc3n2-c2ccc3scnc3c2)cc1F` [Example 58, (R)-4-(7-(3-aminopiperidine-1-yl)-3-(benzo[d]thiazole-5-yl)-3H-imidazo[4,5-b]pyridine-2-yl)-2-fluorobenzonitrile], halving of growth with NCI-H1417 cells (GI50) required 64 nM.
